Reference: patent US12281107B2, “SET8 lysine methyltransferase inhibitor and preparation method and application thereof” (HAINAN YILING MEDICAL INDUSTRY & DEVELOPMENT Co., Ltd., priority 2019, dated 2025)

Assays:
[1] = test system: glioma cell line SH-SY5Y; test: CCK-8 cell proliferation inhibition test, SH-SY5Y; type: cell-based; details: Homo sapiens, 48 h
Method: (§1) 1. Experimental Method: […] cell line SH-SY5Y, colorectal cancer cell line SW480 and liver cancer cell line HepG2 are respectively cultured in an RPMI-1640 medium containing 10% calf serum at 37° C. in a 5% CO2 incubator. The […] method is adopted for cell proliferation inhibition test, and the main operation is as follows: taking the tumor cell line in the logarithmic phase, digesting with 0.25% trypsin, preparing an RPMI-1640 medium containing 10% newborn calf serum into a cell suspension of 6×10^4 cells/mL, and inoculating the cell suspension into a 96-well plate, with 100 μL per well. Culturing at 37° C. and 5% CO2 saturated humidity for 12 h. After adherence, absorbing the culture supernatants in the wells, and adding the sample solution prepared from the RPMI-1640 medium containing 1% calf serum to each well so that the final concentrations of the samples are 100 μM, 30 μM, 10 μM, 3 μM, 1 μM, and 0.3 μM respectively. With 3 wells in parallel for each concentration, continuing culturing for 48 h, then adding 10 μL of CCK-8 solution (Dalian Meilun, MA0218) to each well, and continuing incubating at 37° C. and 5% CO2 for 4 h. Selecting 470 nm on the enzyme-linked immunosorbent assay apparatus to measure the light absorption value of each well, and setting a blank group (only adding a culture solution containing cells) and a control group (using the culture solution to replace drugs) to calculate the cell proliferation inhibition rate. Inhibition rate (%)=(1−average OD value of 3 wells in experimental group/average OD value of 3 wells in control group)×100%. With the inhibition rate as an ordinate, a regression curve is drawn to calculate the IC50 value of the sample. Graphpad prism 7.0 software are adopted for data processing and statistical analysis by.

[2] = test system: liver cancer cell line HepG2; test: CCK-8 cell proliferation inhibition test, HepG2; type: cell-based
Method: as §1

[3] = test system: colorectal cancer cell line SW480; test: CCK-8 cell proliferation inhibition test, SW480; type: cell-based
Method: as §1

[4] = biological target: T1, lysine methyltransferase SET8 (Homo sapiens, UniProt Q9NQR1); test: SET8 methyltransferase inhibitor screening assay kit (Cayman), fluorescence; type: biochemical; details: incubation at 37° C. for 10 min; inhibitor concentration not given
T1 construct: purchased Cayman Company
T1 sequence (Q9NQR1 1-393): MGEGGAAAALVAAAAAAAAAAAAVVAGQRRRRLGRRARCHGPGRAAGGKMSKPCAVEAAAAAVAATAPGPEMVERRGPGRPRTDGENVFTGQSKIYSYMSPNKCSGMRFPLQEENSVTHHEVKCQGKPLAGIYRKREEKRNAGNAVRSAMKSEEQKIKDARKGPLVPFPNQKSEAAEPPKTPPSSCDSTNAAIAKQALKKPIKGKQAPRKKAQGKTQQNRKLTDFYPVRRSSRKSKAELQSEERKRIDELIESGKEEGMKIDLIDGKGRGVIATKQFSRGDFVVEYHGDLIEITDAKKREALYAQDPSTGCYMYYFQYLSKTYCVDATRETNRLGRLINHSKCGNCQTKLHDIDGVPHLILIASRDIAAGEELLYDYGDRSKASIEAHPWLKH
Method: The steps of activity detection are completely based on the SET8 methyltransferase inhibitor screening assay kit of Cayman Company. In short, reagents in the kit are added to the 96-well plate to be tested according to the Table A below.
Then 10 μL of SET8 albumen protein is added to each well, and the reaction begins. After incubation at 37° C. for 10 min, the fluorescence intensity (A) value is measured at the excitation wavelength of 535 nm and the […] of 590 nm. the inhibition rate of the compound is calculated according to the following formula: Inhibition rate %=(Anormal−Asample)/)Normal*100%, and the inhibition rate of each inhibitor on lysine methyltransferase is shown in Table 1.

Q: What does the source list for `COc1ccc(Cc2nc(C)n(C3CCN(C)CC3)n2)cc1` [Compound 20]?
A: inhibition at 100 µM ([1]; 100 μM, read-out: IC % for 100 μM): 84.7%; IC50 ([1]; CCK-8): 10.4 µM; IC % for 100 μM ([2]; HepG2, 100 μM, 48 h): 68.7%; tumor cell proliferation inhibitory activity (in words) ([2]; HepG2, summary of Table 2): good tumor cell proliferation inhibitory activity; IC50 ([2]; Homo sapiens, HepG2, 48 h, CCK-8): 13.6 µM; IC50 ([3]; Homo sapiens, SW480, 48 h, CCK-8): 11.3 µM; IC % for 100 μM ([3]; SW480, 100 μM, 48 h): 79.6%; tumor cell proliferation inhibitory activity (in words) ([3]; SW480, summary of Table 2): good tumor cell proliferation inhibitory activity; Inhibition Rate (%) [4]: 76.9%
